“Also recorded” adds a separate entry of the source.
How the values were obtained:
H345 cell line = test: Apo-1 Caspase 3/7 apoptosis assay, H345; type: cell-based
Experimental: (§1) Lung cancer cell lines used for PPAR analysis included A549, H510, H345, and N417. The FLAP inhibitor: MK886 and COX inhibitor: indomethacin, and combinations thereof, were used as AA inhibitors. PPARs for the analysis included PGJ2 (γ ligand); ciglitazone (γ agonist); LY171882 (γ receptor activator); and WY 14643 (α activator). In order to analyze PPARs in lung cancer cells, growth inhibition (MTT, BrdU); apoptosis (Caspase 3/7 and M30 IHC); and mRNA Northern analyses were performed.
(§2) Apoptosis was determined at particular time points using the Apo-1Caspase 3/7 assay.

[1] = tested on: A549, H510, H345, and N417 lung cancer cell lines; test: Growth inhibition (MTT, BrdU) in lung cancer cell lines; type: cell-based; conditions: all tested cell lines (A549, H510, H345, N417)
Experimental: as §1

A549 cell line [2] = test: M30 immunohistochemistry for apoptosis, A549; type: cell-based
Experimental: as §1
(§3) M30 Immunohistochemistry was performed to test for apoptosis in the various lung cancer cell lines. […] Apoptosis was also observed in the H345 and N417 cell lines, but PPAR induction was low and no significant increase in PPAR protein expression was observed when tested in combination with PGJ2. […] In summary, combinations of FLAP inhibitors, cyclooxygenase inhibitors, and PPARγ ligands generally had additive effects in reducing lung cancer cell line growth; this generally correlated with measures of enhanced apoptosis.

[3] = tested on: ZR-75 breast cancer cell line; test: Proliferation assay, breast cancer cell line ZR-75; type: cell-based; conditions: ZR-75, compared to vehicle control
Experimental: (§4) Breast cancer cell line ZR-75 was grown in the presence of 5 μM inhibitors for 24 and 48 hrs, total RNA was isolated and RT-PCR performed for PPARα and PPARγ using specific primers. Results are presented as percent of control after normalizing with the actin values. The experiment was repeated three times. The error bars indicate standard deviation. […] All values were determined by assessment of % growth inhibition calculated from the optical density value, with a minimum of 6 replicates from at least three different experiments per cell line. The ligands included WY-14643 (open circles); LY 171883 (closed circles); fenofibrate (triangles); clofibrate (diamonds).
Cell lines used in the study were obtained from the American Type Culture Collection (Rockville, Md.). They included MCF-7, ZR-75, T47 D; SKBR-3, and MB-231. The cells were maintained in RPMI-1640, or MEM Zinc option medium, supplemented with 5% fetal bovine serum (FBS), penicillin (50 units/ml) and streptomycin (50 μg/ml) (Life Technologies, Gaithersburg, Md.), in a humidified atmosphere of 95% air and 5% CO2 at 37° C.

[4] = tested on: T47D breast cancer cell line; test: Proliferation assay, breast cancer cell line T47D; type: cell-based; conditions: compared to vehicle control
Experimental: as §4
(A) Northern blot analysis for PPARγ (1.8 Kb), of breast cancer cell line T47D treated with 5 μM MK 886 for 6, 12, 24 hrs and untreated control. RNA was isolated as described in Methods, and […] of total RNA was loaded per lane. Ethidium bromide staining of 28S rRNA was used to check for equal loading and RNA integrity (lower panel). (B) RNA isolated from T47D cells treated with 5 μM MK 886 for different time periods were subjected to RT-PCR using specific primers for PPARγ. The PCR products were normalized to actin gene and 18S. PCR products were quantified by densitometry and the data points presented are expressed as percent of control, and represent mean and SEM of three experiments. […]

PPARα [5] = test: Northern analysis, PPARα mRNA in A549; type: cell-based
Experimental: as §1
(§5) Northern analysis was performed with untreated cells and cells treated with AA inhibitors: MK886, indomethacin, or the combination of MK886 and indomethacin. […] There was also no expression after 24 hours of exposure to AA inhibitors, confirming previous Northern analyses. […] In the H510 cell line, no expression for PPARγ was observed.

PPARγ [6] = test: Semi-quantitative RT-PCR for PPARγ in T47D cells; type: cell-based; conditions: 5 μM MK886, different time periods
Experimental: (§6) (A) Northern blot analysis for PPARγ (1.8 Kb), of breast cancer cell line T47D treated with 5 μM MK 886 for 6, 12, 24 hrs and untreated control. RNA was isolated as described in Methods, and […] of total RNA was loaded per lane. Ethidium bromide staining of 28S rRNA was used to check for equal loading and RNA integrity (lower panel). (B) RNA isolated from T47D cells treated with 5 μM MK 886 for different time periods were subjected to RT-PCR using specific primers for PPARγ. The PCR products were normalized to actin gene and 18S. PCR products were quantified by densitometry and the data points presented are expressed as percent of control, and represent mean and SEM of three experiments. (C) Breast cancer cell line T47D, was incubated with various concentrations of MK886 (circles) and then analyzed using a proliferation assay. After 12 hr incubation, the inhibitors were removed and replaced by media alone (open circles), or media with 4 μM LY 171883 (closed circles). LY 171883 in the presence of media without the FLAP inhibitor is shown (stars). After an additional 24 hr incubation time, the experiments were terminated. All values were determined by assessment of % growth inhibition calculated from the optical density value, with a minimum of 6 replicates from at least three different experiments. The error bars indicate standard deviation. […]

PPARγ [7] = test: Northern analysis, PPARγ mRNA in A549; type: cell-based
Experimental: as §1, §5

H510 cell line [8] = test: Apo-1 Caspase 3/7 apoptosis assay, H510; type: cell-based
Experimental: as §1, §2

PPARγ [9] = test: Northern analysis, PPARγ mRNA in H345; type: cell-based
Experimental: as §1, §5

PPARγ [10] = test: RT-PCR for PPARγ mRNA in breast cancer cell line ZR-75; type: cell-based; conditions: ZR-75, 5 μM, 24 and 48 hours
Experimental: as §4
(§7) Cells were grown for 24 hrs or 48 hrs in the presence or absence of inhibitors at 5 μM concentration. RNA was isolated using the Trizol method (Life Technologies, Gaithersburg, Md.), and RT-PCR was performed using specific primers for PPAR and actin control genes.
(§8) Forward (F) and reverse (R) primers used to detect PPAR cDNAs were: […]
(§9) The ethidium bromide stained image was digitized and the optical density calculated using the NIH Image program. Values were normalized with the actin value obtained with commercially available primers (Clontech Inc., Palo Alto, Calif. ). These experiments were repeated three times.

H510 cell line [11] = test: M30 immunohistochemistry for apoptosis, H510; type: cell-based
Experimental: as §1, §3

PPARα [12] = test: RT-PCR for PPARα mRNA in breast cancer cell line ZR-75; type: cell-based; conditions: ZR-75, 5 μM, 24 and 48 hours
Experimental: as §4, §7, §8, §9

A549 cell line [13] = test: Apo-1 Caspase 3/7 apoptosis assay, A549; type: cell-based
Experimental: as §1, §2

PPARγ [14] = test: Northern blot analysis for PPARγ in T47D cells; type: cell-based, human; conditions: 5 μM MK886, 0, 6, 12, 24 hours
Experimental: as §6, with “(stars).” for “(stars). After an additional 24 hr incubation time, the experiments were terminated. All values were determined by assessment of % growth inhibition calculated from the optical density value, with a minimum of 6 replicates from at least three different experiments. The error bars indicate standard deviation.”
After treatment for the indicated time points (5 μM MK886 at 0, 6, 12, 24 hours), cells were washed with PBS and total RNA was extracted using the RNeasy Mini Kit (QUIAGEN Inc., Valencia, Calif.). […] Equal loading and integrity of RNA was monitored by ethidium bromide staining (FIG. 2A). […]

PPARδ = test: Northern analysis, PPARδ mRNA in A549; type: cell-based
Experimental: as §1, §5

N417 cell line = test: Apo-1 Caspase 3/7 apoptosis assay, N417; type: cell-based
Experimental: as §1, §2

15-HETE = 15-HETE production after exposure to FLAP inhibitor; type: cell-based; conditions: in response to exposure to MK 886

CC1(COc2ccc(CC3SC(=O)NC3=O)cc2)CCCCC1 (racemic) [ciglitazone, (±)-5-[4-(1-Methylcyclohexylmethoxy)-benzyl] thiazolidine-2,4-dione]
apoptosis (Caspase 3/7) (H345 cell line): induced apoptosis
growth of lung cancer cell lines [1]: reduced growth in a dose dependent manner

CCCc1c(OCCCCc2nnn[nH]2)ccc(C(C)=O)c1O [LY 171883]
apoptosis (M30 immunohistochemistry) (A549 cell line [2]): Some apoptosis also occurred
breast tumor cell growth [3]: dose dependent growth reduction
breast tumor cell growth [4]: dose dependent growth reduction
apoptosis (Caspase 3/7) (H345 cell line): neither LY171882 or WY 14643 (α activator) induced apoptosis

CC(C)c1ccc2c(c1)c(SC(C)(C)C)c(CC(C)(C)C(=O)O)n2Cc1ccc(Cl)cc1 [MK886, 3-[1-(4-chlorobenzyl)-3-t-butyl-thio-5-isopropylindol-2-yl]-2,2-dimethylpropanoic acid]
PPARα mRNA (Northern) (PPARα [5]): no mRNA for PPARα
PPARγ induction (semi-quantitative RT-PCR) (PPARγ [6]): induction of PPARγ is more protracted
PPARγ mRNA (Northern) (PPARγ [7]): Up-regulation of PPARγ
apoptosis (Caspase 3/7) (H510 cell line [8]): two fold induction of apoptosis
PPARγ expression (Northern) (PPARγ [9]): PPARγ expression was induced
PPARγ expression (PPARγ [10]): up-regulation
apoptosis (M30 immunohistochemistry) (H510 cell line [11]): apoptosis in the H510 cell line was observed
apoptosis (Caspase 3/7) (H345 cell line): induced apoptosis
PPARα expression (PPARα [12]): up-regulation
growth of lung cancer cell lines [1]: inhibited all tested cell lines in a dose dependent manner ranging from 0.25 to 2.0 μM
apoptosis (Caspase 3/7) (A549 cell line [13]): increased apoptosis
PPARγ expression (Northern blot) (PPARγ [14]): induction of PPARγ is evident within six hours; also recorded: PPARγ expression levels increase
PPARδ mRNA (Northern) (PPARδ): some mRNA observed for PPARδ
apoptosis (Caspase 3/7) (N417 cell line): two fold increase in apoptosis
15-HETE production (15-HETE): large increase

CC(Cc1ccc(O)c(O)c1)C(C)Cc1ccc(O)c(O)c1 (stereo not drawn) [NDGA, Nordihydroguaiaretic acid]
PPARγ expression (PPARγ [10]): up-regulation
PPARα expression (PPARα [12]): up-regulation

CCCCC/C=C/C=C1/C(=O)C=C[C@@H]1C/C=C\CCCC(=O)O [PGJ2, 15-Deoxy-Δ^12,14-Prostaglandin J2]
PPARγ mRNA (Northern) (PPARγ [7]): mRNA decreases to those levels observed with control
PPARγ expression (Northern) (PPARγ [9]): down regulated mRNA
apoptosis (M30 immunohistochemistry) (H510 cell line [11]): apoptosis in the H510 cell line was observed
growth of lung cancer cell lines [1]: reduced growth in a dose dependent manner

CCOC(=O)C(C)(C)Oc1ccc(Cl)cc1 [clofibrate, 2-(4-chlorophenoxy)-2-methylpropanoic acid ethyl ester]
breast tumor cell growth [3]: dose dependent growth reduction
breast tumor cell growth [4]: dose dependent growth reduction

COc1ccc2c(c1)c(CC(=O)O)c(C)n2C(=O)c1ccc(Cl)cc1 [indomethacin]
PPARγ mRNA (Northern) (PPARγ [7]): Up-regulation of PPARγ
apoptosis (Caspase 3/7) (H510 cell line [8]): two fold induction of apoptosis
apoptosis (M30 immunohistochemistry) (H510 cell line [11]): apoptosis in the H510 cell line was observed
growth of lung cancer cell lines [1]: no effect on growth, even at a concentration of greater than 10 μM

— US6756399B2, “Use of lipoxygenase inhibitors and PPAR ligands as anti-cancer therapeutic and intervention agents” (The United States of America as represented by the …, priority 2001, dated 2004)
